From patent US12187709B2 (Genentech, Inc., priority 2021, dated 2025) come the findings set out here.

One test addresses c-Cbl (residues 47-435) (Homo sapiens (Human), UniProt P22681). The test is described as follows: c-Cbl SPR assay. Type of test: binding. As to conditions: 20° C. The method in brief: (§1)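 Values derive from a 1:1 model fitted to multicycle kinetics on captured protein (1300-1500 RU), using six 2-fold concentrations, 60 s contact and dissociation of 120-1200 s. In the chaser format, kd comes from a single-exponential fit of % site occupancy over time.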
On the technique in general: Surface plasmon resonance follows binding to a sensor surface in real time, without labels.

Another test concerns the target Cbl-b (Homo sapiens (Human), UniProt Q13191). The test is described as follows: Cbl-b LCK Ub TR-FRET assay (Cbl-b Lck HTRF). Type of test: biochemical. To be noted: for IC50: Cbl-b LCK Ub TR-FRET; for fold-selectivity (Cbl-b over C-cbl): ratio C-cbl Lck HTRF IC50 / Cbl-b Lck HTRF IC50. The method in brief: (§2)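 After the ubiquitination reaction, detection mixture was added and plates incubated 20 min at room temperature before reading. IC50 values were calculated with wells lacking LCK as the low control and DMSO as the high control.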

In the next test the target is c-Cbl (Homo sapiens (Human), UniProt P22681). Kind of test: C-Cbl LCK Ub TR-FRET assay (C-cbl Lck HTRF). Type of test: biochemical. Put shortly: as §2
On the technique in general: TR-FRET usually uses a lanthanide donor and a delayed reading to cut background.

The target in test [1] is Human Cbl-b (residues 40-426) (Homo sapiens (Human), UniProt Q13191). Kind of test: Cbl-b SPR assay. Type of test: binding. To be noted: for Fold of selectivity: C-cbl SPR Kd vs Cbl-b SPR Kd; for Kd: SPR, 20° C. The method in brief:
as §1

In general, Kd refers to the constant that tells how readily two partners part at equilibrium. Lower therefore signals tighter binding. For orientation: IC50 means the concentration needed to halve the response being measured. High values mean lower potency, low ones higher potency.

Sequence of Cbl-b (Q13191 40-426): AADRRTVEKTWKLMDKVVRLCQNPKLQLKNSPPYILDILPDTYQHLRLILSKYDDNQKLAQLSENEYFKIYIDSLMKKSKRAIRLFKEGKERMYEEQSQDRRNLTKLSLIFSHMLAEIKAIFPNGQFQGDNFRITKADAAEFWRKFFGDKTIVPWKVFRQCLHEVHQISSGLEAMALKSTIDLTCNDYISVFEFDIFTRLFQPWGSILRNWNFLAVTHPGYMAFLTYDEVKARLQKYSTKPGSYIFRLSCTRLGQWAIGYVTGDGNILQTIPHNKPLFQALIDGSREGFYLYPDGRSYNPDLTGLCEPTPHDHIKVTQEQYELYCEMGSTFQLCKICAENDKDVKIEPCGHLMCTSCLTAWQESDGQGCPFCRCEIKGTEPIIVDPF
Sequence of Human Cbl-b (residues 40-426) (Q13191 40-426): as above
Sequence of c-Cbl (residues 47-435) (P22681 47-435): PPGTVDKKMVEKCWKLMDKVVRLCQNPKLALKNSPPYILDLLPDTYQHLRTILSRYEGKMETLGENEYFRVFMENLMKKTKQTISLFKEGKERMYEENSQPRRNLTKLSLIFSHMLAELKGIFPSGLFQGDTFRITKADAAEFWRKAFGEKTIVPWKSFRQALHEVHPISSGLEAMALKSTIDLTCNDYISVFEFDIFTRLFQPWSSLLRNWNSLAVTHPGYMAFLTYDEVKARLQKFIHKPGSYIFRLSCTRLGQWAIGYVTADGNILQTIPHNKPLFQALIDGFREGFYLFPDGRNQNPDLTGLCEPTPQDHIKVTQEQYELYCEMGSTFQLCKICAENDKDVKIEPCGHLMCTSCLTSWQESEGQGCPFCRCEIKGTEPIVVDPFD
Sequence of c-Cbl (P22681 47-435): as above

Compound `Cn1cnnc1[C@]1(c2cccc(N3Cc4c(cc(CNC5(C)CCC5)cc4C(F)(F)F)C3=O)c2)C[C@@](O)(C(F)(F)F)C1` [Compound 120, 2-(3-((1s,3s)-3-hydroxy-1-(4-methyl-4H-1,2,4-triazol-3-yl)-3-(trifluoromethyl)cyclobutyl)phenyl)-6-(((1-methylcyclobutyl)amino)methyl)-4-(trifluoromethyl)isoindolin-1-one] gave a Kd on c-Cbl (residues 47-435) of 1400 nM. For the same compound, on Cbl-b, the IC50 was 360 nM and the “fold-selectivity (Cbl-b over C-cbl)” value is given as 4.8 x. Further, the IC50 against c-Cbl was 1800 nM. Moreover, in test [1], the Fold of selectivity was 6.8× and the Kd turned out to be 180 nM.

As to `C[C@H]1C[C@@](c2cccc(N3Cc4c(cc(CNC5(C)CCC5)cc4C(F)(F)F)C3=O)c2)(c2nncn2C)O1` [Compound 123, 2-(3-((2R,4S)-4-methyl-2-(4-methyl-4H-1,2,4-triazol-3-yl)oxetan-2-yl)phenyl)-6-(((1-methylcyclobutyl)amino)methyl)-4-(trifluoromethyl)isoindolin-1-one], the affinity at c-Cbl (residues 47-435), expressed as Kd, was 130 nM. At Cbl-b, the midpoint of inhibition, the IC50, lay at 68 nM and the “fold-selectivity (Cbl-b over C-cbl)” value amounted to 3.4x. Moreover, at c-Cbl, the IC50 stood at 230 nM. Moreover, in test [1], the Fold of selectivity was found to be 6.1× and the affinity, expressed as Kd, was 21 nM.

As for `C[C@@H]1C[C@@](c2cccc(N3Cc4c(cc(CNC5(C)CCC5)cc4C(F)(F)F)C3=O)c2)(c2nncn2C)O1` [Compound 124, 2-(3-((2R,4R)-4-methyl-2-(4-methyl-4H-1,2,4-triazol-3-yl)oxetan-2-yl)phenyl)-6-(((1-methylcyclobutyl)amino)methyl)-4-(trifluoromethyl)isoindolin-1-one], the Kd on c-Cbl (residues 47-435) came to 67 nM. On Cbl-b, the IC50 was 56 nM and the “fold-selectivity (Cbl-b over C-cbl)” value is 1.9x. The compound also returned a half-inhibitory concentration (IC50) against c-Cbl of 100 nM. In addition, in test [1], the Fold of selectivity was determined as 3.9× and the affinity, expressed as Kd, was 17 nM.

Compound `C[C@H]1C[C@](c2cccc(N3Cc4c(cc(CNC5(C)CCC5)cc4C(F)(F)F)C3=O)c2)(c2nncn2C)O1` [Compound 125, 2-(3-((2S,4S)-4-methyl-2-(4-methyl-4H-1,2,4-triazol-3-yl)oxetan-2-yl)phenyl)-6-(((1-methylcyclobutyl)amino)methyl)-4-(trifluoromethyl)isoindolin-1-one] yielded a Kd at c-Cbl (residues 47-435) of 1500 nM. Also, on Cbl-b, half-maximal inhibition (IC50) was put at 410 nM and the “fold-selectivity (Cbl-b over C-cbl)” value was determined as 5.7x. Also, on c-Cbl, the IC50 turned out to be 2300 nM. In test [1], this compound had a Fold of selectivity of 11× and a Kd of 130 nM.

The compound `C[C@@H]1C[C@](c2cccc(N3Cc4c(cc(CNC5(C)CCC5)cc4C(F)(F)F)C3=O)c2)(c2nncn2C)O1` [Compound 126, 2-(3-((2S,4R)-4-methyl-2-(4-methyl-4H-1,2,4-triazol-3-yl)oxetan-2-yl)phenyl)-6-(((1-methylcyclobutyl)amino)methyl)-4-(trifluoromethyl)isoindolin-1-one] returned a Kd on c-Cbl (residues 47-435) of 130 nM. On Cbl-b, the IC50 came to 75 nM and the “fold-selectivity (Cbl-b over C-cbl)” value is on record as 3.4 x. The 50% inhibitory concentration (IC50) on c-Cbl amounted to 250 nM. In test [1], this compound yielded a Fold of selectivity of 6.0× and a Kd of 12 nM.

With `Cl.Cn1cnnc1[C@]1(c2cccc(N3Cc4c(cc(CNC5(C)CCC5)cc4C(F)(F)F)C3=O)c2)C[C@@H](Cl)C1` [Compound 137, 2-(3-((1r,3r)-3-chloro-1-(4-methyl-4H-1,2,4-triazol-3-yl)cyclobutyl)phenyl)-6-(((1-methylcyclobutyl)amino)methyl)-4-(trifluoromethyl)isoindolin-1-one hydrochloride], the Kd on c-Cbl (residues 47-435) is 2.1 nM; in test [1] it was 0.27 nM. The figures for the IC50 against Cbl-b and against c-Cbl were 6.1 nM and 8.5 nM, respectively. Moreover, the “fold-selectivity (Cbl-b over C-cbl)” value at Cbl-b worked out at 1.4x. The compound also displayed a Fold of selectivity in test [1] of 8.4×.

For the compound `Cn1cnnc1[C@]1(c2cccc(N3Cc4c(cc(CNC5(C)CCC5)cc4C(F)(F)F)C3=O)c2)C[C@H](Cl)C1` [Compound 138, 2-(3-((1s,3s)-3-chloro-1-(4-methyl-4H-1,2,4-triazol-3-yl)cyclobutyl)phenyl)-6-(((1-methylcyclobutyl)amino)methyl)-4-(trifluoromethyl)isoindolin-1-one], the Kd was 4.2 nM on c-Cbl (residues 47-435) and 0.75 nM in test [1]. In addition, the results for the IC50 against Cbl-b and at c-Cbl were 4.1 nM and 4.2 nM, respectively. Also, the “fold-selectivity (Cbl-b over C-cbl)” value on Cbl-b worked out at 1.0x. Besides, the Fold of selectivity in test [1] was determined as 5.6×.

In the case of `Cn1cnnc1[C@H](c1cccc(N2Cc3c(cc(CNC4(C)CCC4)cc3C(F)(F)F)C2=O)c1)[C@H]1CCOC1` [Compound 169, 2-(3-((S)-(4-methyl-4H-1,2,4-triazol-3-yl)((R)-tetrahydrofuran-3-yl)methyl)phenyl)-6-(((1-methylcyclobutyl)amino)methyl)-4-(trifluoromethyl)isoindolin-1-one], on c-Cbl (residues 47-435), the Kd amounted to 180 nM. At Cbl-b, half-maximal inhibition (IC50) was put at 72 nM and the “fold-selectivity (Cbl-b over C-cbl)” value worked out at 4.8x. On c-Cbl, this compound displayed an IC50 of 340 nM. In test [1], this compound came in with a Fold of selectivity of 2.7× and a Kd of 66 nM.

On c-Cbl (residues 47-435), `Cn1cnnc1[C@]1(c2cc(NC3CCCC3)cc(N3Cc4c(cc(CNC5(C)CCC5)cc4C(F)(F)F)C3=O)c2)C[C@H](C)C1` [Compound 177, 2-(3-(cyclopentylamino)-5-((1s,3s)-3-methyl-1-(4-methyl-4H-1,2,4-triazol-3-yl)cyclobutyl)phenyl)-6-(((1-methylcyclobutyl)amino)methyl)-4-(trifluoromethyl)isoindolin-1-one] yielded a Kd of 99 nM. Moreover, on Cbl-b, inhibition was half-maximal at 59 nM (IC50) and the “fold-selectivity (Cbl-b over C-cbl)” value is reported as 2.8x. Also, at c-Cbl, the IC50 was 180 nM. Further, in test [1], the Fold of selectivity was determined as 10× and binding was characterised by a dissociation constant (Kd) of 9.9 nM.

In the case of `CCO[C@H]1C[C@@](c2cccc(N3Cc4c(cc(CNC5(C)CCC5)cc4C(F)(F)F)C3=O)c2)(c2nncn2C)C1` [Compound 178, 2-(3-((1s,3s)-3-ethoxy-1-(4-methyl-4H-1,2,4-triazol-3-yl)cyclobutyl)phenyl)-6-(((1-methylcyclobutyl)amino)methyl)-4-(trifluoromethyl)isoindolin-1-one], the Kd on c-Cbl (residues 47-435) was found to be 30 nM. In addition, on Cbl-b, the IC50 was found to be 33 nM and the “fold-selectivity (Cbl-b over C-cbl)” value turned out to be 2.5x. Further, at c-Cbl, half-maximal inhibition (IC50) required 85 nM. In test [1], the Fold of selectivity came out at 4.6× and binding was put at a Kd of 5.8 nM.

Compound `CCO[C@H]1C[C@](c2cccc(N3Cc4c(cc(CNC5(C)CCC5)cc4C(F)(F)F)C3=O)c2)(c2nncn2C)C1` [Compound 179, 2-(3-((1r,3r)-3-ethoxy-1-(4-methyl-4H-1,2,4-triazol-3-yl)cyclobutyl)phenyl)-6-(((1-methylcyclobutyl)amino)methyl)-4-(trifluoromethyl)isoindolin-1-one] had a Kd at c-Cbl (residues 47-435) of 58 nM. Further, on Cbl-b, the IC50 was 30 nM and the “fold-selectivity (Cbl-b over C-cbl)” value amounted to 3.4x. Also, 110 nM corresponded to half-maximal inhibition at c-Cbl (IC50). In test [1], this compound displayed a Fold of selectivity of 13× and a Kd of 4.6 nM.
